Data on two compounds can be found in article PMC4399838, “Antipsychotic-Like Effect of the Muscarinic Acetylcholine Receptor Agonist BuTAC in Non-Human Primates” (PLoS ONE, 2015).

For assay [1], the target named is T1, human M2 muscarinic receptor (Homo sapiens, UniProt P08172).
T1 construct: purchased PerkinElmer Life and Analytical Sciences, Boston, MA
T1 sequence (P08172 1-466): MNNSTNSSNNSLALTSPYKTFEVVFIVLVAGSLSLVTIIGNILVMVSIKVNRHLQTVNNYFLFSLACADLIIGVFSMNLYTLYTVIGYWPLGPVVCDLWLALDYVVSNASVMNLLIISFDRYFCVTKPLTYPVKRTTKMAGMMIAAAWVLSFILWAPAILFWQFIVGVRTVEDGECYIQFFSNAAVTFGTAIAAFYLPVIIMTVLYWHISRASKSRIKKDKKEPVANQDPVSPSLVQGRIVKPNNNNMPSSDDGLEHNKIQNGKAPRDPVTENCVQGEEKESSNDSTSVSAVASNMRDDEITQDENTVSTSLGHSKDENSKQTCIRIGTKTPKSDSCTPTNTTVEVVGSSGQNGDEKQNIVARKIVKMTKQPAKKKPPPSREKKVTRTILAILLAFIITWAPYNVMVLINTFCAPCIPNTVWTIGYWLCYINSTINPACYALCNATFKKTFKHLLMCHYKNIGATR
As to the kind of experiment: GTP-γ-[35S] binding, antibody capture SPA (agonist and antagonist mode). The assay is classed as biochemical. Here is the method: (§1) The antibody capture scintillation proximity technique previously described by DeLapp et al was used in a 96-well plate to determine GTP-γ-[35S] binding. One hundred μl (20–40 fmol/well) of membrane preparation from CHO cells that stably express the human M1-M5 muscarinic receptors (PerkinElmer Life and Analytical Sciences, Boston, MA) were incubated with varying concentration of test compound (final concentrations from 50pM to 1μM) for 30 min. One μM final concentration of GDP was added to M2 and M4 receptor membranes before incubation. […] (500 pM final concentration; Perkin Elmer Life and Analytical Sciences) was added to each well followed by 30 min of incubation. Then the labelled membranes were solubilized with 0.27% Nonidet P40 for 30 min where after they were incubated with 20 μl (final dilution of 1:400) of the appropriate rabbit polyclonal Gα antibody (Covance, Princeton, NJ) for 60 min. An anti-Gαq/11 antibody was used for the M1-, M3-, and M5 membranes, whereas an anti-Gαi-3 antibody was used for the M2- and M4 membranes (Eli Lilly and Company, Indianapolis, IN). After 60 min of incubation, 50 μl (1.25 mg/well) anti-rabbit scintillation proximity assay (SPA) beads (GE Healthcare, Piscataway, NJ) were added per well where after the plates were incubated for another 3 h. By use of a Wallac MicroBeta TriLux scintillation counter (PerkinElmer), the plates were centrifuged for 10 min at 700 × g and counted for 1 min per well. The incubations took place at room temperature in GTP-binding assay buffer (20 mM Hepes, 100 mm NaCl, 5 mM MgC12, pH 7.4). The data were analyzed by use of nonlinear regression for a sigmoidal concentration response curve (GraphPad Prism v. 4.0). Data were normalized to a full agonist response (100 μM oxotremorine-M). […] The antagonist percent inhibition data were normalized to data generated with an EC90 concentration of acetylcholine. The mean relative EC50, IC50, and %Emax, and pKi values were calculated as a mean of at least three independent experiments±SEM. In order to obtain relevant comparisons between subtypes, the experimental system is routinely calibrated with reference agonists (oxotremorine-M, pilocarpine, MCN-A343) to measure full and partial agonism as well as to ensure that the system is not under- or over-reporting functional efficacies. The radioligand binding assays have earlier been described.
On the technique in general: GTPγS is a poorly hydrolysed GTP analogue; its binding reports G protein activation.

Assay [2] has as its target T2, human M3 muscarinic receptor (Homo sapiens, UniProt P20309).
T2 construct: purchased PerkinElmer Life and Analytical Sciences, Boston, MA
The assay is described as above. The assay is classed as biochemical. Here is the method: as §1

For assay [3], the target named is T3, human M4 muscarinic receptor (Homo sapiens, UniProt P08173).
T3 construct: purchased PerkinElmer Life and Analytical Sciences, Boston, MA
T3 sequence (P08173 1-479): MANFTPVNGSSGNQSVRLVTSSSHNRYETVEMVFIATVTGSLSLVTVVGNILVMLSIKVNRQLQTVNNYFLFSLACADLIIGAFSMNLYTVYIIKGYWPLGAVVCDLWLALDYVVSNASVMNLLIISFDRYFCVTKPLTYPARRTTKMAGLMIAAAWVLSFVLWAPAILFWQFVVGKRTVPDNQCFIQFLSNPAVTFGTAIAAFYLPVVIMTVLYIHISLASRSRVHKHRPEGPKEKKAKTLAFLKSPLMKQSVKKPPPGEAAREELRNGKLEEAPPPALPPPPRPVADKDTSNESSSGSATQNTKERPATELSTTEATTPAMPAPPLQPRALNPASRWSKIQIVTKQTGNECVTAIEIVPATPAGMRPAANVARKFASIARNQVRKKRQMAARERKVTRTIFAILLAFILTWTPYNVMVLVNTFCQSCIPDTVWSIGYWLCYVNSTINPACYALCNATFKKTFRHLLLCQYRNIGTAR
More on the design: method as in Watt et al. 2013 [10]. The settings on record: ref Watt et al. 2013 [10], cited from earlier work.

The mark [4] stands for this setting: antagonist mode, maximal inhibition of EC90 agonist response.
Where [5] appears, read: percentage of maximum 100 μM oxotremorine-M signal.

T2 sequence (P20309 whole entry): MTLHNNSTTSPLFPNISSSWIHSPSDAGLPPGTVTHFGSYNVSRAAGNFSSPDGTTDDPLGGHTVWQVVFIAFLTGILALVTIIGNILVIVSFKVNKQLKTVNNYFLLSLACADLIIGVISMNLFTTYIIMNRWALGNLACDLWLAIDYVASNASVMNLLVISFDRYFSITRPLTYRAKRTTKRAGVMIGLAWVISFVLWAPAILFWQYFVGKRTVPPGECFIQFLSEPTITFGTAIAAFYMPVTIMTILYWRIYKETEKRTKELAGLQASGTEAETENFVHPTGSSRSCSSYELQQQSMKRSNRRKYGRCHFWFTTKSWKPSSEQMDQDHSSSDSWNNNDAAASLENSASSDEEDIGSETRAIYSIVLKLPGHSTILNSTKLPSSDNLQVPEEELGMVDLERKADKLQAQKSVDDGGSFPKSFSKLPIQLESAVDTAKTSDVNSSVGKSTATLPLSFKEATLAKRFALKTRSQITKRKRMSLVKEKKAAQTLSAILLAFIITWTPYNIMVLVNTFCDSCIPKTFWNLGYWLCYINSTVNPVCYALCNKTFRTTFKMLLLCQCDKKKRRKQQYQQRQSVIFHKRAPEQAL

By EC50 is commonly meant the concentration that produces a half-maximal response. A high value points to weaker potency. By IC50 is commonly meant the concentration that gives 50% inhibition. A higher IC50 goes with a need for much substance. A word on the % Inhibition: it is the percentage by which the read-out fell short of the control. A word on the Emax: it is the greatest response seen or fitted, relative to the assay's reference. In the case of `CCCSc1nsnc1[C@H]1CN2CCC[C@H]1C2` [PTAC, (5R,6R) 6-(3-propylthio-1,2,5-thiadiazol-4-yl)-1-azabicyclo-[3.2.1]-octane], the EC50 in assay [1] was 0.501 nM; in assay [2], 1.95 nM. The results for the IC50 in assay [1] and in assay [2] were 3.47 nM and 20.4 nM, respectively. Also, the “% Inhibition” value in assay [1] (setting [4]) amounted to 16.8 ± 5.49%; in assay [2] (setting [4]) it was 90.45 ± 3.52%. For the same compound, the results for the Emax in assay [1] (setting [5]) and in assay [2] (setting [5]) were 68.5 ± 5.23% and 11.9 ± 3.07%, respectively.

For the compound `CCCCSc1nsnc1[C@H]1CN2CCC[C@H]1C2` [BuTAC, (5R,6R)-6-(3-butylthio-1,2,5-thiadiazol-4-yl)-1-azabicyclo[3.2.1]octane], the “Rel pEC50” value in assay [3] (agonist mode, negative log-transformed) was 10.27 ± 10.31 M. In assay [3] (agonist mode), the “% Emax” value was 35.53 ± 11.51%. Further, the “Rel pIC50” value in assay [3] (antagonist mode, negative log-transformed) is listed as 9.19 ± 9.13 M. The “% Inhibition” value in assay [3] (antagonist mode) was 57.55 ± 3.22%.
